Reference: BindingDB's records for doi:10.1021/jm990397l (University of Groningen, 2000)

Molecular target: 5-HT1D receptor (Bos taurus)
Assay: Inhibition affinity against 5-HT-1D receptor in bovine caudate nucleus using radio binding assay

Cc1nc(-c2ccc(-c3ccc(C(=O)Nc4ccc(OS(=O)(=O)C(F)(F)F)c(N5CCN(C)CC5)c4)cc3)c(C)c2)no1 [Trifluoro-methanesulfonic acid 4-{[2'-methyl-4'-(5-methyl-[1,2,4]oxadiazol-3-yl)-biphenyl-4-carbonyl]-amino}-2-(4-methyl-piperazin-1-yl)-phenyl ester]
IC50: > 1 µM
